In PubChem BioAssay (NCI):
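Following 48 hours of exposure in 96-well plates, responses at five concentrations were used to interpolate endpoints linearly. Definition used: TGI = concentration required for complete inhibition of growth.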

Assays:
Assay in all cases: NCI tumour cell line growth inhibition, 48 h
A549 NSCLC = system: A549 NSCLC
SK-OV-3 ovarian = system: SK-OV-3 ovarian
OVCAR-5 ovarian = system: OVCAR-5 ovarian
EKVX NSCLC = system: EKVX NSCLC
LOX IMVI melanoma = system: LOX IMVI melanoma
NCI/ADR-RES ovarian = system: NCI/ADR-RES ovarian
CAKI-1 renal = system: CAKI-1 renal
SNB-75 CNS = system: SNB-75 CNS
RPMI-8226 leukemia = system: RPMI-8226 leukemia
DU-145 prostate = system: DU-145 prostate
ACHN renal = system: ACHN renal
HT29 colon = system: HT29 colon

Question: What does the source list for `CCOC(=O)/C=C/CCO[Si](C)(C)C(C)(C)C`?
Answer: TGI (A549 NSCLC): > 100 µM; TGI (SK-OV-3 ovarian): > 100 µM; TGI (OVCAR-5 ovarian): > 100 µM; TGI (EKVX NSCLC): > 100 µM; TGI (LOX IMVI melanoma): > 100 µM; TGI (NCI/ADR-RES ovarian): > 100 µM; TGI (CAKI-1 renal): > 100 µM; TGI (SNB-75 CNS): > 100 µM; TGI (RPMI-8226 leukemia): > 100 µM; TGI (DU-145 prostate): > 100 µM; TGI (ACHN renal): > 100 µM; TGI (HT29 colon): > 100 µM

Question: `Cc1cc(N(CCC#N)CCC#N)ccc1/C(N=Nc1cccc(Cl)c1)=N/NC(=O)c1cc(Cl)ccc1O` was tested. Which TGI (A549 NSCLC) did it give?
Answer: 75.7 µM

Question: And the TGI (SK-OV-3 ovarian)?
Answer: 90.6 µM

Question: And the TGI (OVCAR-5 ovarian)?
Answer: > 100 µM

Question: And the TGI (EKVX NSCLC)?
Answer: 39.6 µM

Question: What about the TGI (LOX IMVI melanoma) of the same compound?
Answer: 42.2 µM

Question: What about the TGI (NCI/ADR-RES ovarian) of the same compound?
Answer: 54.6 µM

Question: What about the TGI (CAKI-1 renal) of the same compound?
Answer: 44.8 µM

Question: What about the TGI (SNB-75 CNS) of the same compound?
Answer: 42.1 µM

Question: And the TGI (RPMI-8226 leukemia)?
Answer: 63.5 µM

Question: And the TGI (DU-145 prostate)?
Answer: 42.6 µM

Question: And the TGI (ACHN renal)?
Answer: 42 µM

Question: And the TGI (HT29 colon)?
Answer: 44.2 µM

Question: For `O=C(c1cccs1)N(C(=S)OCCOc1ccccc1)c1ccccc1`, which TGI (A549 NSCLC) is on record?
Answer: > 100 µM

Question: And the TGI (SK-OV-3 ovarian)?
Answer: 73.5 µM

Question: And the TGI (OVCAR-5 ovarian)?
Answer: 70.2 µM

Question: And the TGI (EKVX NSCLC)?
Answer: 78.8 µM

Question: And the TGI (LOX IMVI melanoma)?
Answer: 33.3 µM

Question: What about the TGI (NCI/ADR-RES ovarian) of the same compound?
Answer: 57.7 µM

Question: What about the TGI (CAKI-1 renal) of the same compound?
Answer: 83.8 µM

Question: And the TGI (SNB-75 CNS)?
Answer: 54.7 µM

Question: And the TGI (RPMI-8226 leukemia)?
Answer: 53.9 µM

Question: What about the TGI (DU-145 prostate) of the same compound?
Answer: > 100 µM

Question: What about the TGI (ACHN renal) of the same compound?
Answer: 72.1 µM

Question: And the TGI (HT29 colon)?
Answer: 96.5 µM

Question: `Cc1ccc(-c2nc(N/N=C/C=C/c3ccccc3)c3ccccc3n2)cc1` was tested. Which TGI (A549 NSCLC) did it give?
Answer: > 100 µM

Question: What about the TGI (SK-OV-3 ovarian) of the same compound?
Answer: > 100 µM

Question: And the TGI (OVCAR-5 ovarian)?
Answer: 48.1 µM

Question: And the TGI (EKVX NSCLC)?
Answer: 51.8 µM

Question: And the TGI (LOX IMVI melanoma)?
Answer: > 100 µM

Question: And the TGI (NCI/ADR-RES ovarian)?
Answer: > 100 µM

Question: And the TGI (CAKI-1 renal)?
Answer: > 100 µM

Question: What about the TGI (SNB-75 CNS) of the same compound?
Answer: > 100 µM

Question: And the TGI (RPMI-8226 leukemia)?
Answer: > 100 µM

Question: And the TGI (DU-145 prostate)?
Answer: 96.4 µM

Question: And the TGI (ACHN renal)?
Answer: 75.9 µM

Question: And the TGI (HT29 colon)?
Answer: > 100 µM

Question: With `Nc1ncnc2oc(C3OC(COC(=O)c4ccccc4)C(OC(=O)c4ccccc4)C3OC(=O)c3ccccc3)nc12` (configuration not stated) as the compound, how does the TGI (A549 NSCLC) read?
Answer: > 100 µM

Question: And the TGI (SK-OV-3 ovarian)?
Answer: > 100 µM

Question: What about the TGI (OVCAR-5 ovarian) of the same compound?
Answer: > 100 µM

Question: And the TGI (EKVX NSCLC)?
Answer: > 100 µM

Question: What about the TGI (LOX IMVI melanoma) of the same compound?
Answer: > 100 µM

Question: What about the TGI (NCI/ADR-RES ovarian) of the same compound?
Answer: > 100 µM

Question: What about the TGI (CAKI-1 renal) of the same compound?
Answer: > 100 µM

Question: What about the TGI (SNB-75 CNS) of the same compound?
Answer: > 100 µM

Question: And the TGI (RPMI-8226 leukemia)?
Answer: > 100 µM

Question: And the TGI (DU-145 prostate)?
Answer: > 100 µM

Question: What about the TGI (ACHN renal) of the same compound?
Answer: > 100 µM

Question: What about the TGI (HT29 colon) of the same compound?
Answer: > 100 µM

Question: How did the TGI (A549 NSCLC) turn out when `C=C1CC(c2ccc(OCCCN3C(=O)c4ccccc4C3=O)cc2)OC1=O` (configuration not stated) was run?
Answer: 39.2 µM

Question: And the TGI (SK-OV-3 ovarian)?
Answer: 27.5 µM

Question: And the TGI (OVCAR-5 ovarian)?
Answer: 25.5 µM

Question: What about the TGI (EKVX NSCLC) of the same compound?
Answer: 18.4 µM

Question: What about the TGI (LOX IMVI melanoma) of the same compound?
Answer: 3.77 µM

Question: What about the TGI (NCI/ADR-RES ovarian) of the same compound?
Answer: > 95.1 µM

Question: And the TGI (CAKI-1 renal)?
Answer: 6.54 µM

Question: And the TGI (SNB-75 CNS)?
Answer: 23.7 µM

Question: What about the TGI (RPMI-8226 leukemia) of the same compound?
Answer: 3.68 µM

Question: What about the TGI (DU-145 prostate) of the same compound?
Answer: 16.3 µM

Question: And the TGI (ACHN renal)?
Answer: 10.4 µM

Question: And the TGI (HT29 colon)?
Answer: 9.24 µM
